Results published in ChEMBL document CHEMBL1201862, “PubChem BioAssay data set” (2004).
Active and inactive are the calls of the source.

Columns and labels:
Type in all cases: functional
LIM domain kinase 1 = LIM domain kinase 1 (Homo sapiens, UniProt P53667); assay: Navigating the Kinome. Panel member name: LIMK1
[1] = biological target: Receptor-type tyrosine-protein kinase FLT3 (Homo sapiens, UniProt P36888);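 further: FLT3 was tested as one member of a kinome-wide kinase panel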
[2] = biological target: Mitogen-activated protein kinase kinase kinase kinase 4 (Homo sapiens, UniProt O95819)
[3] = biological target: Leukocyte tyrosine kinase receptor (Homo sapiens, UniProt P29376); assay: Navigating the Kinome. Panel member name: LTK
[4] = biological target: Tyrosine-protein kinase ABL1 (Homo sapiens, UniProt P00519)
[5] = biological target: Tyrosine-protein kinase Lck (Homo sapiens, UniProt P06239);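 further: lck was assayed as one member of a kinase panel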
[6] = biological target: Serine/threonine-protein kinase pim-1 (Homo sapiens, UniProt P11309)
[7] = biological target: Casein kinase I isoform alpha (Homo sapiens, UniProt P48729)
Activin receptor type-1 = Activin receptor type-1 (Homo sapiens, UniProt Q04771); assay: Navigating the Kinome. Panel member name: ACVR1
[8] = biological target: Macrophage colony-stimulating factor 1 receptor (Homo sapiens, UniProt P07333);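 further: value comes from the Navigating the Kinome screening panel, CSF1R member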
[9] = biological target: Platelet-derived growth factor receptor alpha (Homo sapiens, UniProt P16234); assay: Navigating the Kinome. Panel member name: PDGFRA
[10] = biological target: Protein kinase C theta type (Homo sapiens, UniProt Q04759); assay: Navigating the Kinome. Panel member name: PRKCQ
[11] = biological target: Cyclin-dependent kinase 5 (Homo sapiens, UniProt Q00535);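 further: CDK5 measured as one member of a kinase profiling panel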
[12] = biological target: Tyrosine-protein kinase receptor TYRO3 (Homo sapiens, UniProt Q06418);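 further: TYRO3 value obtained as one member of a kinome-wide profiling panel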
[13] = biological target: Glycogen synthase kinase-3 beta (Homo sapiens, UniProt P49841);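 further: value comes from a broad kinome profiling panel, with GSK3B as the panel member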
[14] = biological target: Tyrosine-protein kinase Fyn (Homo sapiens, UniProt P06241)
[15] = biological target: Dual specificity mitogen-activated protein kinase kinase 1 (Homo sapiens, UniProt Q02750); assay: Navigating the Kinome. Panel member name: MAP2K1
[16] = biological target: cAMP-dependent protein kinase catalytic subunit alpha (Homo sapiens, UniProt P17612)
Aurora kinase B = Aurora kinase B (Homo sapiens, UniProt Q96GD4)
[17] = biological target: Mitogen-activated protein kinase kinase kinase kinase 2 (Homo sapiens, UniProt Q12851);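 further: measured as one member of a kinome-wide kinase panel, with MAP4K2 as the panel entry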
[18] = biological target: Rho-associated protein kinase 1 (Homo sapiens, UniProt Q13464);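 further: measured within a broad kinome-wide panel profiling many kinases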
[19] = biological target: Serine/threonine-protein kinase Chk1 (Homo sapiens, UniProt O14757);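 further: measured as one member of a kinome-wide kinase profiling panel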
[20] = biological target: Dual specificity protein kinase CLK4 (Homo sapiens, UniProt Q9HAZ1)
Aurora kinase A = biological target: T1, Aurora kinase A (Homo sapiens, UniProt O14965);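 further: value from the Navigating the Kinome kinase panel profiling, panel entry STK6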
T1 sequence (O14965 whole entry): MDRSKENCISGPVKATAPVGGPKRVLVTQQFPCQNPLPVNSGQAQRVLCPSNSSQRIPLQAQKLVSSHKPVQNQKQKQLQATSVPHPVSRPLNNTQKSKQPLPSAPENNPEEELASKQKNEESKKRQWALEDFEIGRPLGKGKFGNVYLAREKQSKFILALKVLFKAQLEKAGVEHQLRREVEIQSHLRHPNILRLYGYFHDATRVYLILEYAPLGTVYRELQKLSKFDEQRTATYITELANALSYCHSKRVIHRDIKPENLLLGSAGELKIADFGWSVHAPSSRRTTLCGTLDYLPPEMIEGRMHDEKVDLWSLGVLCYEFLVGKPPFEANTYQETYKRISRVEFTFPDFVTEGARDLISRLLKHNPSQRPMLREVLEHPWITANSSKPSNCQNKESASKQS

[21] = biological target: Macrophage-stimulating protein receptor (Homo sapiens, UniProt Q04912); assay: Navigating the Kinome. Panel member name: MST1R
[22] = biological target: Cyclin-dependent kinase 8 (Homo sapiens, UniProt P49336); assay: Navigating the Kinome. Panel member name: CDK8
[23] = biological target: Dual specificity tyrosine-phosphorylation-regulated kinase 1B (Homo sapiens, UniProt Q9Y463); assay: Navigating the Kinome. Panel member name: DYRK1B
[24] = biological target: Fibroblast growth factor receptor 1 (Homo sapiens, UniProt P11362)
[25] = biological target: Hepatocyte growth factor receptor (Homo sapiens, UniProt P08581);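 further: kinase panel profiling across the kinome, with MET as the panel member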
[26] = biological target: Dual specificity tyrosine-phosphorylation-regulated kinase 1A (Homo sapiens, UniProt Q13627);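 further: measured against DYRK1A as one member of a broad kinome profiling panel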
[27] = biological target: Leucine-rich repeat serine/threonine-protein kinase 2 (Homo sapiens, UniProt Q5S007);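 further: value from a broad kinome-wide panel profiling study in which LRRK2 was one of the kinases tested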
[28] = biological target: Vascular endothelial growth factor receptor 2 (Homo sapiens, UniProt P35968)
[29] = biological target: Mitogen-activated protein kinase 8 (Homo sapiens, UniProt P45983);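 further: value comes from one member of a kinome-wide kinase profiling panel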
[30] = biological target: ALK tyrosine kinase receptor (Homo sapiens, UniProt Q9UM73);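 further: ALK tested as one member of a kinase panel screen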
[31] = biological target: Cyclin-dependent kinase 7 (Homo sapiens, UniProt P50613);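 further: value comes from a kinome-wide kinase profiling panel in which CDK7 is one member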
[32] = biological target: Cyclin-dependent kinase 9 (Homo sapiens, UniProt P50750);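 further: value from the CDK9 entry of a kinome-spanning kinase panel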

Tyrosine-protein kinase receptor TYRO3, sequence (Q06418 whole entry): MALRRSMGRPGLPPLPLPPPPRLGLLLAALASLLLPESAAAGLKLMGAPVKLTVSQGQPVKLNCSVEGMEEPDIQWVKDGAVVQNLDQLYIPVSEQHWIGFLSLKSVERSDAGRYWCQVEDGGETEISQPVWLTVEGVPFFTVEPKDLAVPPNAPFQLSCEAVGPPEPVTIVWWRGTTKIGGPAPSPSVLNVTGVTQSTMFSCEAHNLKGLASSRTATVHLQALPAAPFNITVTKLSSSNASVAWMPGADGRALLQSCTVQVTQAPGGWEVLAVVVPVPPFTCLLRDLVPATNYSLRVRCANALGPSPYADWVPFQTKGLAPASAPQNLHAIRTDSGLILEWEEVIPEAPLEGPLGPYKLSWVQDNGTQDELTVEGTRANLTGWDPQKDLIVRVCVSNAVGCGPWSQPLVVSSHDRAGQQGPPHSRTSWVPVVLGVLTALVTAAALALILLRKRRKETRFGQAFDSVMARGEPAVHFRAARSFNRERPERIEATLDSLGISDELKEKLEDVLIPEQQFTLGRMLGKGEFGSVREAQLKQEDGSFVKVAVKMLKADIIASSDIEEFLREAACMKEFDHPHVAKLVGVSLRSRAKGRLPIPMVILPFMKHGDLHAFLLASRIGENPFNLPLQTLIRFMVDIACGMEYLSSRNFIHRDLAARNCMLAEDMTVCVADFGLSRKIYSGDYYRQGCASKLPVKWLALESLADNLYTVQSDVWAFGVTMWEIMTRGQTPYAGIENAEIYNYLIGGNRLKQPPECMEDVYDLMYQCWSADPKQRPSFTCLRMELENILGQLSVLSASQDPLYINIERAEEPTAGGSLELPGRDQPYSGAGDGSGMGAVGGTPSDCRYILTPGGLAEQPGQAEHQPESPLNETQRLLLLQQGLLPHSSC
Vascular endothelial growth factor receptor 2, sequence (P35968 whole entry): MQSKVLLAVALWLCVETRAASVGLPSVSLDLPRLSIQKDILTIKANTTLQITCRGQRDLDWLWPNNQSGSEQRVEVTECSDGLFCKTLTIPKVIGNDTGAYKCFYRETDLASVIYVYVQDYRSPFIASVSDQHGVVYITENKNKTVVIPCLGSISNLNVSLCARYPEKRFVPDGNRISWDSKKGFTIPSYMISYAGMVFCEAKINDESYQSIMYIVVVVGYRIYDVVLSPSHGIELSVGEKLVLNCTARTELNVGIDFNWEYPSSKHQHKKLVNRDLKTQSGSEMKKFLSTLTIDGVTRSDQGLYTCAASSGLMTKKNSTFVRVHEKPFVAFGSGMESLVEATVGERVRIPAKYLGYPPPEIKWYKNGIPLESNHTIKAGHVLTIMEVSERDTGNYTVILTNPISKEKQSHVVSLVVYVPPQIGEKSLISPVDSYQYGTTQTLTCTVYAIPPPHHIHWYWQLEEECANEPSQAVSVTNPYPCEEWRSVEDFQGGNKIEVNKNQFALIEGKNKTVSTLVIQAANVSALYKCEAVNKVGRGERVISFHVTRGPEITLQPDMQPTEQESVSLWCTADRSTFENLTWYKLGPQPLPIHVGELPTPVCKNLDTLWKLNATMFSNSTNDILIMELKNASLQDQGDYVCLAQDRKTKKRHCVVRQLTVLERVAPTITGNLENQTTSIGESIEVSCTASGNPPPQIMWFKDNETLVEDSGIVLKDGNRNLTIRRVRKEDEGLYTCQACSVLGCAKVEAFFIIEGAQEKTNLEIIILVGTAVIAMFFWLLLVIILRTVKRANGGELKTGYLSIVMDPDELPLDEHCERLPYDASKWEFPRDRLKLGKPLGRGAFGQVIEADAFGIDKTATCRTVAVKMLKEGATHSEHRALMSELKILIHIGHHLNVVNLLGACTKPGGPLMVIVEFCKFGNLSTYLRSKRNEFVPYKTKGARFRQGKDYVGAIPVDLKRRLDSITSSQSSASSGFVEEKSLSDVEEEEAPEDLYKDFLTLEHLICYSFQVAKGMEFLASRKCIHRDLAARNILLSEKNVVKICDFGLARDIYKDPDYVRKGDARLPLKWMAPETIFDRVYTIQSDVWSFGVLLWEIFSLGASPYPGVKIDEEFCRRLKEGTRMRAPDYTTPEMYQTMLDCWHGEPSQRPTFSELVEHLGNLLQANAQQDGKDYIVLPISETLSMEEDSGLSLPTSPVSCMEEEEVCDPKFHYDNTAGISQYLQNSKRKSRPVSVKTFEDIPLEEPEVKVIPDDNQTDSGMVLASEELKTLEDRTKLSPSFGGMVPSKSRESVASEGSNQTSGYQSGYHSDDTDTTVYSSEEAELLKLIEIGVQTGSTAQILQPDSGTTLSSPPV
Leukocyte tyrosine kinase receptor, sequence (P29376 whole entry): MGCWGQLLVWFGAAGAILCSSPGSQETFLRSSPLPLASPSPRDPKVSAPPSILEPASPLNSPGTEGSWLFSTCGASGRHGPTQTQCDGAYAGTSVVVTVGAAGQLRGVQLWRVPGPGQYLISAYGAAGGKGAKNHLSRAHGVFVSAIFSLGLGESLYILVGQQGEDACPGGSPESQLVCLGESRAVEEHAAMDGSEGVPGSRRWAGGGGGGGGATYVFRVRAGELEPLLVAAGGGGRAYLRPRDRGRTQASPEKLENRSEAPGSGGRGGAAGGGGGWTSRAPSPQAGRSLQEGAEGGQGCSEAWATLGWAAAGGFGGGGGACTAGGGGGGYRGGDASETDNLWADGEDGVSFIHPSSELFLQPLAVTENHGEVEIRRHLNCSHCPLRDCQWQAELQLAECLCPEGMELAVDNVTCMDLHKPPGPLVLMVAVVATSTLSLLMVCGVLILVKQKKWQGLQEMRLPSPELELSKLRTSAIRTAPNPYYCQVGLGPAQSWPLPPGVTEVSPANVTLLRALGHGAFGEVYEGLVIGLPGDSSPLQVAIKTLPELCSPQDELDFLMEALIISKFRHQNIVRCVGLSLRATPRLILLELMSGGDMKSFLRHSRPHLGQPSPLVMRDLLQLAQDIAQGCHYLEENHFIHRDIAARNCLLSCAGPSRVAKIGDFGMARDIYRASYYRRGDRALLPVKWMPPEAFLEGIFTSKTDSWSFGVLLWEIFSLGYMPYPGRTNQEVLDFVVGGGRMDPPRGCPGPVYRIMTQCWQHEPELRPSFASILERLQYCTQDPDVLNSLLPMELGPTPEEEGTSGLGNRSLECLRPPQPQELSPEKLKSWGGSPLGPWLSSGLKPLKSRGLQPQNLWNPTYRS
Casein kinase I isoform alpha, sequence (P48729 whole entry, canonical isoform): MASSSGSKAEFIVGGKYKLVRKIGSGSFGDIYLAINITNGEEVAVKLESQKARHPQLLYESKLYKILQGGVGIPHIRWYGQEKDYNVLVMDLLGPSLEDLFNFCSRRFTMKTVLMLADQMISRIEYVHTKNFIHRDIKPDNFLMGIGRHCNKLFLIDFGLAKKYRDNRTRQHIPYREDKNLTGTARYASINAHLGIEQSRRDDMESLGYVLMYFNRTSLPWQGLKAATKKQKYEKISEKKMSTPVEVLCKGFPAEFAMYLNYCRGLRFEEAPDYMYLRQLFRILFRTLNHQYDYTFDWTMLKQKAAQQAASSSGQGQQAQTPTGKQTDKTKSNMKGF
Mitogen-activated protein kinase kinase kinase kinase 2, sequence (Q12851 whole entry): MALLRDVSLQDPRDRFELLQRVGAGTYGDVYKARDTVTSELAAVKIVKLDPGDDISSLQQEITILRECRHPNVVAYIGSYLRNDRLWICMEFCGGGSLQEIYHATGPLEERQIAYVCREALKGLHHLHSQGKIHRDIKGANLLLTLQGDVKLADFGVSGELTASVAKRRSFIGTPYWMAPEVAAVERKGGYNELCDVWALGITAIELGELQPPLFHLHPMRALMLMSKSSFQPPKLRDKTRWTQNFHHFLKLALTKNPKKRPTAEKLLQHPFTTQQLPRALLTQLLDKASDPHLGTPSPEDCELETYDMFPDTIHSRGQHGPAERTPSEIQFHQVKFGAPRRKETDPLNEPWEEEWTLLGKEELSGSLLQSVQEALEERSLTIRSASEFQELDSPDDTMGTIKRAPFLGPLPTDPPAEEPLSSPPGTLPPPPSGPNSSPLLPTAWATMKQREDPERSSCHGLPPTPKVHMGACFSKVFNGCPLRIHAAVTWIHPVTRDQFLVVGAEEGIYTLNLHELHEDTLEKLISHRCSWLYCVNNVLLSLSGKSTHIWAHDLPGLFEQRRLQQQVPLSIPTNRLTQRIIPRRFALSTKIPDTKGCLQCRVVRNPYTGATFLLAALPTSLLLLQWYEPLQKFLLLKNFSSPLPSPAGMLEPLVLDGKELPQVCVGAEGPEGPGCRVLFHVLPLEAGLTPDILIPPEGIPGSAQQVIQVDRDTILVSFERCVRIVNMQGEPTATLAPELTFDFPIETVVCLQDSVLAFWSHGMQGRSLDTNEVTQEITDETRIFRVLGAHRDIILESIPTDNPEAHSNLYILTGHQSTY
Tyrosine-protein kinase Fyn, sequence (P06241 whole entry): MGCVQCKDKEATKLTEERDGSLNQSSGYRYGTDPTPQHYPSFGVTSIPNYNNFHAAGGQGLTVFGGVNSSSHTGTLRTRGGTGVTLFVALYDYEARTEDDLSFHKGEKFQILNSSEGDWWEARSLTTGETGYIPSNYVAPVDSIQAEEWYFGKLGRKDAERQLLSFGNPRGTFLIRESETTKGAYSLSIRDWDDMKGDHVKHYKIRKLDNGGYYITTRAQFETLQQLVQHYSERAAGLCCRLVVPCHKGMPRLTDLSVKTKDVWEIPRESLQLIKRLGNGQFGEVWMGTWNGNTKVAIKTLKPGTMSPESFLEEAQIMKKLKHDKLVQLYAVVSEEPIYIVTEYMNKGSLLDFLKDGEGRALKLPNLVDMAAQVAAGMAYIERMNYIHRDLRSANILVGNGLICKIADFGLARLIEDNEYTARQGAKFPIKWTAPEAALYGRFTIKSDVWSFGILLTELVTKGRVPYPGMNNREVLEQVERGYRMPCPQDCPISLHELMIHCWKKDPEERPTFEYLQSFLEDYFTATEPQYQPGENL

- Ki (LIM domain kinase 1): 20 µM (active)
- Ki [1]: 63.1 µM (active)
- Ki [2]: 10 µM (active)
- Ki [3]: 7.94 µM (active)
- Ki [4]: 25.1 µM (active)
- Ki [5]: 100 µM (active)
- Ki [6]: 5.01 µM (active)
- Ki [7]: 25.1 µM (active)
- Ki (Activin receptor type-1): 3.16 µM (active)
- Ki [8]: 15.8 µM (active)
- Ki [9]: 15.8 µM (active)
- Ki [10]: > 100 µM (inactive)
- Ki [11]: 5.01 µM (active)
- Ki [12]: 31.6 µM (active)
- Ki [13]: 39.8 µM (active)
- Ki [14]: 79.4 µM (active)
- Ki [15]: 2 µM (active)
- Ki [16]: 10 µM (active)
- Ki (Aurora kinase B): 6.31 µM (active)
- Ki [17]: 3.16 µM (active)
- Ki [18]: 10 µM (active)
- Ki [19]: 39.8 µM (active)
- Ki [20]: 5.01 µM (active)
- Ki (Aurora kinase A): > 63.1 µM (inactive)
- Ki [21]: 50.1 µM (active)
- Ki [22]: 3.16 µM (active)
- Ki [23]: 10 µM (active)
- Ki [24]: 79.4 µM (active)
- Ki [25]: 31.6 µM (active)
- Ki [26]: 12.6 µM (active)
- Ki [27]: 15.8 µM (active)
- Ki [28]: 100 µM (active)
- Ki [29]: 39.8 µM (active)
- Ki [30]: 100 µM (active)
- Ki [31]: 50.1 µM (active)
- Ki [32]: 39.8 µM (active)
Compound: Cc1cccc(-c2cccc3onc(N)c23)c1
